Drawing on patent US20120035112A1, “NEURONAL DIFFERENTIATION-INDUCING PEPTIDE AND USE THEREOF” (Toagosei Co., Ltd., priority 2009, published 2012), this text covers neuronal differentiation-inducing activity for 4 sequences.

The test system of the experiment is mouse neuronal stem cells. Nature of the experiment: Evaluation of neuronal differentiation-inducing activities of synthesized peptides (β3-tubulin fluorescence antibody method, DAPI nuclear stain). The experiment is classed as cell-based. To be noted: peptide 0.5 μM, 7 days culture in mouse neuronal stem cell growth medium; compared with positive control (differentiation medium, FIG. 16). How it is done: The neuronal differentiation-inducing activities of the synthesized peptides obtained in Example 1 (Samples 1 to 15) were examined.
That is, the sample peptide was added to a culture broth of neuronal stem cells collected from a mouse (mouse neuronal stem cell growth medium, a product of Cell Applications), and incubated. Addition was carried out to a concentration of 0.5 μM for each peptide.
Next, once 7 days had elapsed following peptide addition, each of the cultured cells was nuclear stained with DAPI (4′,6-diamidino-2-phenylindole) and examined with a fluorescence microscope. In addition, evaluation with a neuronal differentiation induction marker was carried out on the same samples. That is, using tubulin (specifically, β3-tubulin) as the marker for identifying neurons (nerve cells), the presence of tubulin (i.e., the presence or absence of neurons) within the culture solution was checked by a fluorescence antibody method using a fluorochrome-labeled anti-tubulin antibody for tubulin identification. The number of each figure corresponds to the number of the sample peptide used.
Each of these figures is a fluorescence micrograph (image) obtained by examining the state of neuronal differentiation by mouse neuronal stem cells following addition of the respective sample peptides and 7 days of culturing. The image was prepared by merging a DIC image, a DAPI nuclear stain image, and a fluorescence image showing the results of an investigation by an immune antibody method using fluorochrome-labeled anti-tubulin antibody.
As a positive control, mouse neuronal stem cells were cultured in a mouse neuronal stem cell differentiation medium (product of Cell Applications) without adding any of the peptides. When 7 days had elapsed following the start of culturing, treatment and fluorescence microscopic examination were carried out in the same way as described above.
As a negative control, mouse neuronal stem cells were cultured in a mouse neuronal stem cell […] (product of Cell Applications) without adding any of the peptides. When 7 days had elapsed following the start of culturing, treatment and fluorescence microscopic examination were carried out in the same way as described above.

Consider ALLLLAAWTVRAGKKRTLRKNDRKKR [Sample 7], for which the neuronal differentiation-inducing activity result is listed as “particularly high neuronal differentiation-inducing activities”.

Turning to LLLLAAWTARAGKKRTLRKNDRKKR [Sample 2], the neuronal differentiation-inducing activity result is listed as “particularly high neuronal differentiation-inducing activities”.

Regarding LLLLAAWTVRAGKKRTLRKNDRKKR [Sample 8], the neuronal differentiation-inducing activity result is reported as “particularly high neuronal differentiation-inducing activities”.

In the case of LALLLLAAWTVRAGKKRTLRKNDRKKR [Sample 6], the neuronal differentiation-inducing activity result was “particularly high neuronal differentiation-inducing activities”.
